Reference: the supplement of paper PMC5908809

What was measured:
IMC-1 (IL-2 20 ng/mL) [1] = assay: percent inhibition of viability; higher = more inhibition; conditions: 72 h
YT (IL-2 2.5 ng/mL) [2] = assay: as above; conditions: 72 h
NK-92 (IL-2 2.5 ng/mL) [3] = assay: as above; conditions: 72 h
[4] = test system: normal primary NK cells, pool 3 (3 donors) (IL-2 2.5 ng/mL); assay: as above; conditions: 72 h
DERL-7 (IL-2 2.5 ng/mL) [5] = assay: as above; conditions: 72 h
NK-YS (IL-2 2.5 ng/mL) [6] = assay: as above; conditions: 72 h
[7] = test system: normal primary NK cells, pool 1 (3 donors), resting (IL-2 0 ng/mL); assay: as above; conditions: 72 h
SNK-6 (IL-2 2.5 ng/mL) [8] = assay: as above; conditions: 72 h
KHYG-1 (IL-2 2.5 ng/mL) [9] = assay: as above; conditions: 72 h
[10] = test system: normal primary NK cells, pool 1 (3 donors) (IL-2 2.5 ng/mL); assay: as above; conditions: 72 h
[11] = test system: normal primary NK cells, pool 2 (3 donors) (IL-2 2.5 ng/mL); assay: as above; conditions: 72 h
KAI3 (IL-2 2.5 ng/mL) [12] = assay: as above; conditions: 72 h
NKL (IL-2 2.5 ng/mL) [13] = assay: as above; conditions: 72 h
[14] = test system: normal NK cells expanded with K562-aAPC; assay: drug sensitivity score (DSS) (DSS units); higher = more sensitive; extreme values may be limits of the assay; conditions: 72 h; IL-2 2.5 ng/mL
Description: (§1)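 Drug sensitivity and resistance testing on K562-aAPC-expanded normal NK cells: 5 concentrations (10-fold steps over a 10,000-fold range), 72 h at 37 °C, viability by CellTiter-Glo normalised to DMSO and benzethonium chloride controls; DSS from the fitted curve.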

IMC-1 (IL-2 20 ng/mL) [15] = assay: as above; conditions: 72 h
YT (IL-2 2.5 ng/mL) [16] = assay: as above; conditions: 72 h
NK-92 (IL-2 2.5 ng/mL) [17] = assay: as above; conditions: 72 h
[18] = test system: normal primary NK cells, pool 3 (3 donors) (IL-2 2.5 ng/mL); assay: as above; conditions: 72 h
DERL-7 (IL-2 2.5 ng/mL) [19] = assay: as above; conditions: 72 h
NK-YS (IL-2 2.5 ng/mL) [20] = assay: as above; conditions: 72 h
[21] = test system: normal primary NK cells, pool 1 (3 donors), resting (IL-2 0 ng/mL); assay: as above; conditions: 72 h
SNK-6 (IL-2 2.5 ng/mL) [22] = assay: as above; conditions: 72 h
KHYG-1 (IL-2 2.5 ng/mL) [23] = assay: as above; conditions: 72 h
[24] = test system: normal primary NK cells, pool 1 (3 donors) (IL-2 2.5 ng/mL); assay: as above; conditions: 72 h
[25] = test system: normal primary NK cells, pool 2 (3 donors) (IL-2 2.5 ng/mL); assay: as above; conditions: 72 h
KAI3 (IL-2 2.5 ng/mL) [26] = assay: as above; conditions: 72 h
NKL (IL-2 2.5 ng/mL) [27] = assay: as above; conditions: 72 h
[28] = test system: normal NK cells expanded with K562-aAPC; assay: percent inhibition of viability; higher = more inhibition; conditions: 72 h, IL-2 2.5 ng/mL
Description: as §1

Cc1cc(Nc2cc(N3CCN(C)CC3)nc(/C=C/c3ccccc3)n2)n[nH]1 [ENMD-2076] (max concentration tested 10000 nM)
percent inhibition of viability (IMC-1 (IL-2 20 ng/mL) [1]; 1 nM): 5.76%
percent inhibition of viability (IMC-1 (IL-2 20 ng/mL) [1]; 10 nM): 6.97%
percent inhibition of viability (IMC-1 (IL-2 20 ng/mL) [1]; 100 nM): 6.68%
percent inhibition of viability (IMC-1 (IL-2 20 ng/mL) [1]; 1000 nM): 69%
percent inhibition of viability (IMC-1 (IL-2 20 ng/mL) [1]; 10000 nM): 99.3%
percent inhibition of viability (YT (IL-2 2.5 ng/mL) [2]; 1 nM): 5.28%
percent inhibition of viability (YT (IL-2 2.5 ng/mL) [2]; 10 nM): 5.36%
percent inhibition of viability (YT (IL-2 2.5 ng/mL) [2]; 100 nM): 3.17%
percent inhibition of viability (YT (IL-2 2.5 ng/mL) [2]; 1000 nM): 31.5%
percent inhibition of viability (YT (IL-2 2.5 ng/mL) [2]; 10000 nM): 101%
percent inhibition of viability (NK-92 (IL-2 2.5 ng/mL) [3]; 1 nM): 11.8%
percent inhibition of viability (NK-92 (IL-2 2.5 ng/mL) [3]; 10 nM): 8.87%
percent inhibition of viability (NK-92 (IL-2 2.5 ng/mL) [3]; 100 nM): 7.47%
percent inhibition of viability (NK-92 (IL-2 2.5 ng/mL) [3]; 1000 nM): 52.2%
percent inhibition of viability (NK-92 (IL-2 2.5 ng/mL) [3]; 10000 nM): 100%
percent inhibition of viability ([4]; 1 nM): -2.94%
percent inhibition of viability ([4]; 10 nM): -6.14%
percent inhibition of viability ([4]; 100 nM): -2.82%
percent inhibition of viability ([4]; 1000 nM): 14.7%
percent inhibition of viability ([4]; 10000 nM): 96.1%
percent inhibition of viability (DERL-7 (IL-2 2.5 ng/mL) [5]; 1 nM): -3.97%
percent inhibition of viability (DERL-7 (IL-2 2.5 ng/mL) [5]; 10 nM): 1.55%
percent inhibition of viability (DERL-7 (IL-2 2.5 ng/mL) [5]; 100 nM): 8.93%
percent inhibition of viability (DERL-7 (IL-2 2.5 ng/mL) [5]; 1000 nM): 73.3%
percent inhibition of viability (DERL-7 (IL-2 2.5 ng/mL) [5]; 10000 nM): 100%
percent inhibition of viability (NK-YS (IL-2 2.5 ng/mL) [6]; 1 nM): 4%
percent inhibition of viability (NK-YS (IL-2 2.5 ng/mL) [6]; 10 nM): 7.48%
percent inhibition of viability (NK-YS (IL-2 2.5 ng/mL) [6]; 100 nM): 10.6%
percent inhibition of viability (NK-YS (IL-2 2.5 ng/mL) [6]; 1000 nM): 76.2%
percent inhibition of viability (NK-YS (IL-2 2.5 ng/mL) [6]; 10000 nM): 84.6%
percent inhibition of viability ([7]; 1 nM): -0.34%
percent inhibition of viability ([7]; 10 nM): -9.97%
percent inhibition of viability ([7]; 100 nM): -7.43%
percent inhibition of viability ([7]; 1000 nM): 16.7%
percent inhibition of viability ([7]; 10000 nM): 80.9%
percent inhibition of viability (SNK-6 (IL-2 2.5 ng/mL) [8]; 1 nM): 5.5%
percent inhibition of viability (SNK-6 (IL-2 2.5 ng/mL) [8]; 10 nM): 2.27%
percent inhibition of viability (SNK-6 (IL-2 2.5 ng/mL) [8]; 100 nM): -27.8%
percent inhibition of viability (SNK-6 (IL-2 2.5 ng/mL) [8]; 1000 nM): 68.5%
percent inhibition of viability (SNK-6 (IL-2 2.5 ng/mL) [8]; 10000 nM): 79.8%
percent inhibition of viability (KHYG-1 (IL-2 2.5 ng/mL) [9]; 1 nM): 3.13%
percent inhibition of viability (KHYG-1 (IL-2 2.5 ng/mL) [9]; 10 nM): 4.35%
percent inhibition of viability (KHYG-1 (IL-2 2.5 ng/mL) [9]; 100 nM): 5.27%
percent inhibition of viability (KHYG-1 (IL-2 2.5 ng/mL) [9]; 1000 nM): 79.3%
percent inhibition of viability (KHYG-1 (IL-2 2.5 ng/mL) [9]; 10000 nM): 103%
percent inhibition of viability ([10]; 1 nM): -3.71%
percent inhibition of viability ([10]; 10 nM): -10.8%
percent inhibition of viability ([10]; 100 nM): -1.53%
percent inhibition of viability ([10]; 1000 nM): 25%
percent inhibition of viability ([10]; 10000 nM): 93.9%
percent inhibition of viability ([11]; 1 nM): -1.71%
percent inhibition of viability ([11]; 10 nM): 3%
percent inhibition of viability ([11]; 100 nM): 0.94%
percent inhibition of viability ([11]; 1000 nM): 31%
percent inhibition of viability ([11]; 10000 nM): 89.3%
percent inhibition of viability (KAI3 (IL-2 2.5 ng/mL) [12]; 1 nM): 11.4%
percent inhibition of viability (KAI3 (IL-2 2.5 ng/mL) [12]; 10 nM): 13.8%
percent inhibition of viability (KAI3 (IL-2 2.5 ng/mL) [12]; 100 nM): 24.2%
percent inhibition of viability (KAI3 (IL-2 2.5 ng/mL) [12]; 1000 nM): 81.2%
percent inhibition of viability (KAI3 (IL-2 2.5 ng/mL) [12]; 10000 nM): 103%
percent inhibition of viability (NKL (IL-2 2.5 ng/mL) [13]; 1 nM): 2.47%
percent inhibition of viability (NKL (IL-2 2.5 ng/mL) [13]; 10 nM): 5.63%
percent inhibition of viability (NKL (IL-2 2.5 ng/mL) [13]; 100 nM): 17.7%
percent inhibition of viability (NKL (IL-2 2.5 ng/mL) [13]; 1000 nM): 61.2%
percent inhibition of viability (NKL (IL-2 2.5 ng/mL) [13]; 10000 nM): 96.1%
drug sensitivity score [14]: 12.9
drug sensitivity score (IMC-1 (IL-2 20 ng/mL) [15]): 14.2
drug sensitivity score (YT (IL-2 2.5 ng/mL) [16]): 10.1
drug sensitivity score (NK-92 (IL-2 2.5 ng/mL) [17]): 11.8
drug sensitivity score [18]: 7.76
drug sensitivity score (DERL-7 (IL-2 2.5 ng/mL) [19]): 15
drug sensitivity score (NK-YS (IL-2 2.5 ng/mL) [20]): 15.4
drug sensitivity score [21]: 7.17
drug sensitivity score (SNK-6 (IL-2 2.5 ng/mL) [22]): 12.2
drug sensitivity score (KHYG-1 (IL-2 2.5 ng/mL) [23]): 15.4
drug sensitivity score [24]: 8.98
drug sensitivity score [25]: 9.3
drug sensitivity score (KAI3 (IL-2 2.5 ng/mL) [26]): 18.1
drug sensitivity score (NKL (IL-2 2.5 ng/mL) [27]): 14
percent inhibition of viability ([28]; 1 nM): 2.38%
percent inhibition of viability ([28]; 10 nM): -3.79%
percent inhibition of viability ([28]; 100 nM): 7%
percent inhibition of viability ([28]; 1000 nM): 60.5%
percent inhibition of viability ([28]; 10000 nM): 99.8%
